Results reported in patent US3962446A, “Analgesic compositions containing 2-cyanoalkylbenzomorphan derivatives and salts thereof” (priority 1971, dated 1976).
Where two headings read alike, the source gives them in different places.

Columns and labels:
[1] = Abstinence syndrome (bodyweight decrease) on the day after drug withdrawal following 4 weeks of subcutaneous dosing; assay type: in vivo, male rats of Wistar strain; design: key: +++: severe decrease (about 5% decrease); ++: moderate decrease; +: mild decrease; -: no decrease; conditions: male Wistar rats, 20 mg/kg/day for 4 weeks, subcutaneous twice a day
Procedure: Compound for 4 weeks) syndrome
Note: Groups of male rats of Wistar strain (bodyweight, 150 g), each grou
consisting of 20 male rats, were subcutaneously given the test compound
twice a day for 4 consecutive weeks. On the next day after drug
withdrawal, the bodyweight was measured. The symbols have the following
meanings: +++, severe decrease (about 5% decrease); ++, moderate decrease
+, mild decrease; -, no decrease. The marked decrease is taken as an […]

[2] = Subcutaneous writhing test (antagonism of the syndrome produced by intraperitoneal acetic acid); assay type: in vivo, mice; conditions: Mus musculus, sc
Procedure: […]. Note: The test was based on the specific antagonism of the test compound to the typical syndrome produced by intraperitoneal injection of 0.6% aqueous acetic acid. The syndrome was characterized by intermittent contractions of the abdomen, twisting and turning of the trunk and extension of the hind legs. A group of 5 mice was used for each dose level. The test compound was administered subcutaneously 20 minutes before the injection of acetic acid. […] The ED50 value was calculated according to the Litchfeld-Wilcoxon's method.

[3] = Long term animal tests for addiction / physical dependency (daily oral or subcutaneous administration for over one month); assay type: in vivo; conditions: rats, orally or subcutaneously every day for over one month
From the text: On account of this addiction liability, these analgesics are severely restricted in a therapeutic use.

[4] = cited from earlier work
[5] = mice, subcutaneous, 20 minutes before 0.6% acetic acid i.p., Litchfeld-Wilcoxon's method, read-out: ED50

## CC1C2Cc3ccc(O)cc3C1(C)CCN2CCCC#N (centres unmarked) [2'-Hydroxy-2-(γ-cyanopropyl)-5,9-dimethyl-6,7-benzomorphan]
[1]
  Abstinence syndrome: -
[2]; [5]
  ED50: 3 mg/kg

## CC12CCN(CCC#N)C(Cc3ccc(O)cc31)C2 (stereo not drawn) [2'-Hydroxy-2-(β-cyanoethyl)-5-methyl-6,7-benzomorphan]
[1]
  Abstinence syndrome: -
[2]; [5]
  ED50: 2.9 mg/kg
[3]
  addiction / physical dependency: do not show addiction in long term animal tests

## CC(=O)Oc1ccc2c(c1)C1(C)CCN(CCC#N)C(C2)C1C (stereo not drawn) [2'-Acetoxy-2-(β-cyanoethyl)-5,9-dimethyl-6,7-benzomorphan]
[1]
  Abstinence syndrome: -
[2]; [5]
  ED50: 0.5 mg/kg
[3]
  addiction / physical dependency: do not show addiction in long term animal tests

## COc1ccc2c3c1O[C@H]1[C@@H](O)C=C[C@H]4[C@@H](C2)N(C)CC[C@@]341 [Methylmorphine, reference compound]
[2]; [5]
  ED50: 14 mg/kg

## CCC1C2Cc3ccc(O)cc3C1(C)CCN2CCCC#N (centres unmarked) [2'-Hydroxy-2-(γ-cyanopropyl)-5-methyl-9-ethyl-6,7-benzomorphan]
[1]
  Abstinence syndrome: -
[2]; [5]
  ED50: 1.5 mg/kg

## CCC12CCN(CCCC#N)C(Cc3ccc(O)cc31)C2C (centres unmarked) [2'-hydroxy-2-(γ-cyanopropyl)-5-ethyl-9-methyl-6,7-benzomorphan]
[1]
  Abstinence syndrome: -
[2]; [5]
  ED50: 0.19 mg/kg
[3]
  addiction / physical dependency: do not show addiction in long term animal tests

## CC(C)=CCN1CCC2(C)c3cc(O)ccc3CC1C2C (centres unmarked) [Pentazocine, 2'-hydroxy-2-(3"-methyl-2"-butenyl)-5,9-dimethyl-6,7-benzomorphan, reference compound]
[2]; [5]
  ED50: 17.5 mg/kg

## CC1C2Cc3ccc(O)cc3C1(C)CCN2CCC#N (stereo not drawn) [2'-Hydroxy-2-(β-cyanoethyl)-5,9-dimethyl-6,7-benzomorphan]
[1]
  Abstinence syndrome: -
[2]; [5]
  ED50: 0.9 mg/kg
[3]
  addiction / physical dependency: do not show addiction in long term animal tests

## CN1CC[C@]23c4c5ccc(O)c4O[C@H]2[C@@H](O)C=C[C@H]3[C@H]1C5 [Morphine, reference compound]
[2]
  ED50: 1.4 mg/kg

## CCC1C2Cc3ccc(O)cc3C1(CC)CCN2CCCC#N (centres unmarked) [2'-hydroxy-2-(γ-cyanopropyl)-5,9-diethyl-6,7-benzomorphan]
[1]
  Abstinence syndrome: -
[2]; [5]
  ED50: 0.3 mg/kg

## CC12CCN(CCC#N)C(Cc3ccccc31)C2 (stereo not drawn) [2-(β-Cyanoethyl)-5-methyl-6,7-benzomorphan]
[1]
  Abstinence syndrome: -

## CC1C2Cc3ccc(O)cc3C1(C)CCN2C (centres unmarked) [2'-Hydroxy-2,5,9-trimethyl-6,7-benzomorphan, reference compound]
[1]
  Abstinence syndrome: ++
[2]; [5]
  ED50: 3.5 mg/kg
[4]; prior art compounds
  addiction liability: show an addiction liability
[4]; prior art, U.S. Pat. No. 3,138,603
  analgesic activity: potent analgesic activity
